The data set in a line: solvent given as SMILES.

Under “in ClCCl”, `F[B-]1(F)Oc2ccc3ccccc3c2-c2c3c(c4c([n+]21)CCc1ccccc1-4)CCc1ccccc1-3` gave an emission maximum of 476 nm.
Regarding `CC[n+]1nc2cc3c4c(c2c2ccccc21)CCCN4CCC3`, the emission maximum (in O) is listed as 570 nm.
Consider `O=Cc1ccc(-c2cccc(-c3nc4ccccc4s3)c2O)o1`, for which the emission maximum stood at 567 nm (in CCO), 565 nm (in ClCCl) and 585 nm (in O).
For the molecule `C(#Cc1ccccc1)C(C#Cc1ccccc1)=Cc1cccc(C=C(C#Cc2ccccc2)C#Cc2ccccc2)c1`, the emission maximum (in ClC(Cl)Cl) came to 413 nm.
As to `CC(=O)c1c2c(cc3cc(N(C)C)ccc13)CCC2`, the emission maximum by setting is: (in C1CCCCC1) 445 nm; (in C1CCOC1) 505 nm; (in C1COCCO1) 495 nm; (in CC#N) 545 nm; (in CCO) 605 nm; (in CS(C)=O) 558 nm. Further, the emission maximum was found to be 481 nm (in Cc1ccccc1), 511 nm (in ClC(Cl)Cl) and 509 nm (in ClCCl).
Molecule `CCCC1(CCC)c2ccccc2-c2ccccc21` had an emission maximum (in C1CCCCC1) of 309 nm.
In turn, `CC1(C)c2ccccc2N(c2ccc3nc4c5ccc(N6c7ccccc7C(C)(C)c7ccccc76)cc5c5cc(N6c7ccccc7C(C)(C)c7ccccc76)ccc5c4nc3c2)c2ccccc21` showed an emission maximum (in Cc1ccccc1) of 605 nm and an emission maximum (in c1cc(-c2cccc(-n3c4ccccc4c4ccccc43)c2)cc(-n2c3ccccc3c3ccccc32)c1) of 590 nm.
On to `CC1(C)CC(=O)c2ccccc2N1`, for which the emission maximum reads like this: (in CC#N) 439 nm; (in CCO) 483 nm.
For the molecule `CN(C)c1ccc2nc(/C=C/c3ccccc3)c(=O)oc2c1`, the emission maximum amounted to 488 nm (in C1CCCCC1); 533 nm (in C1COCCO1); 567 nm (in CC#N); 557 nm (in CC(C)=O); 485 nm (in CCCCCCC); 574 nm (in CCO). In addition, the emission maximum is, setting by setting: (in CCOC(C)=O) 541 nm; (in CN(C)C=O) 571 nm; (in CS(C)=O) 581 nm; (in Cc1ccccc1) 523 nm; (in ClC(Cl)Cl) 542 nm; (in ClCCl) 547 nm.
With `O=C1c2ccccc2NCN1Cc1ccccc1`, the emission maximum runs as follows: (in CC#N) 416 nm; (in CCCCCCCCCCCCCCCC) 381 nm; (in CO) 443 nm; (in ClC(Cl)Cl) 398 nm; (in c1ccccc1) 395 nm.
Turning to `Cc1cc(C)nc(N)n1`, the emission maximum reads like this: (in CCO) 337 nm; (in CO) 339 nm; (in O) 342 nm.
On to `CCOC(=O)c1cc(C(=O)OCC)c2cc(O)ccc2n1`, for which, for the setting “in CCO”, the emission maximum was 466 nm.
Molecule `COc1ccc(C#Cc2cc(C#Cc3ccc(OC)cc3)c(C#Cc3ccc(OC)cc3)c(C#Cc3ccc(OC)cc3)c2C#Cc2ccc(OC)cc2)cc1` came in with an emission maximum (in ClCCl) of 437 nm.
In the case of `CCCCCCc1ccc(-n2c3[n+](c4c5ccccc5c5ccccc5c42)[B-](C)(C)c2cc(-n4c5ccccc5c5ccccc54)ccc2-3)cc1`, the emission maximum is given as 409 nm (in C1CCOC1), 409 nm (in CC#N), 410 nm (in Cc1ccccc1) and 408 nm (in ClCCl).
As to `c1ccc(COc2cc(C[n+]3ccc(-c4cc[n+](Cc5cc(OCc6ccccc6)cc(OCc6ccccc6)c5)cc4)cc3)cc(OCc3ccccc3)c2)cc1`, for the setting “in CC#N”, the emission maximum was 365 nm.
For `CCCCCCCCn1cc(-n2c(-c3cc(-c4nc5ccc(C)cc5n4-c4cn(CCCCCCCC)nn4)cc(-c4nc5ccc(C)cc5n4-c4cn(CCCCCCCC)nn4)c3)nc3ccc(C)cc32)nn1`, the emission maximum (in C1CCOC1) is listed as 382.5 nm.
As for `Cc1ccc(/C2=c3\cc/c(o3)=C(\c3ccc(C)cc3)c3ccc([nH]3)-c3ccc4n3[B-](F)(F)[N+]3=C(C=CC3=C4c3ccc[nH]3)c3ccc2[nH]3)cc1`, for the setting “in ClC(Cl)Cl”, the emission maximum came to 729 nm.
On the same count and under the same terms, the result for `CC1(C)CC[N+]2=c3c(cc4c(c31)Oc1cc3c(cc1C=4c1ccccc1C(=O)O)C(c1ccccc1C(=O)O)=c1cc4c5c(c1O3)C(C)(C)CC[N+]=5CCC4)CCC2` reads 635 nm.
The molecule `COc1ccc(/C=C/c2nc(/C=C/c3ccc(N(C)C)cc3)cc(/C=C/c3ccc(N(C)C)cc3)n2)cc1` came in with an emission maximum (in C1CCOC1) of 522 nm; an emission maximum (in CC#N) of 581 nm; an emission maximum (in CC(C)=O) of 559 nm; an emission maximum (in CCCCCCC) of 450 nm; an emission maximum (in CS(C)=O) of 598 nm; an emission maximum (in Cc1ccccc1) of 480 nm. Moreover, the emission maximum (in ClCCl) is recorded as 533 nm.
`CC(=O)c1ccc(-c2cnc3nn4ccccc4c3c2)cc1` displayed an emission maximum (in C1CCOC1) of 420 nm.
Molecule `CC(C)(C)c1ccc2c(c1)c1cc(C(C)(C)C)ccc1n2-c1ccc(C(=CC#N)c2ccc(-n3c4ccc(C(C)(C)C)cc4c4cc(C(C)(C)C)ccc43)cc2)cc1` returned an emission maximum (in Cc1ccccc1) of 450 nm.
Consider `CC1=CC(C)=[N+]2C1=Cc1c3ccccc3c(C#Cc3ccccc3)n1[B-]2(F)F`, for which the emission maximum runs as follows: (in CCCCCC) 615 nm; (in CCCCCCCCO) 623 nm; (in CCOC(C)=O) 618 nm; (in CN(C)C=O) 624 nm; (in ClCCl) 629 nm.
As to `COc1ccc(N2c3cc(OC)ccc3N=c3cc4c(cc32)=Nc2cc(C(C)(C)C)cc(C(C)(C)C)c2O4)cc1`, the emission maximum was 624 nm (in CC#N), 587 nm (in CCCCCC) and 633 nm (in CO).
As for `c1ccc(Nc2nc(Nc3ccccc3)nc(Nc3ccc4c5cccc6cccc(c7cccc3c74)c65)n2)cc1`, the emission maximum runs as follows: (in C1COCCO1) 487 nm; (in CC#N) 492 nm; (in CCCCOCCCC) 486 nm; (in CCOC(C)=O) 488 nm.
For the molecule `CC1=[N+]2C(=C(c3c4ccccc4c(-c4ccccc4)c4ccccc34)c3ccc(C)n3[B-]2(F)F)C=C1`, the emission maximum worked out at 536 nm (in CC#N); 527 nm (in CCCCCC); 528 nm (in CCO); 533 nm (in CN(C)C=O); 532 nm (in Cc1ccccc1); 533 nm (in ClCCl).
For the molecule `CC(C)c1ccc(/C=C/c2nc3ccc(N(C)C)cc3s2)cc1`, the emission maximum by setting is: (in C1CCCCC1) 454 nm; (in CC#N) 517 nm.
With `Oc1cccc(/N=C/c2ccccc2Oc2ccccc2)c1`, the emission maximum by setting is: (in C1CCCCC1) 402 nm; (in C1COCCO1) 406 nm; (in CC#N) 395 nm; (in CC(C)=O) 415 nm; (in CC(C)CO) 387 nm; (in CC(C)O) 406 nm. Moreover, the emission maximum is, setting by setting: (in CCCCC) 403 nm; (in CCCCCCCCO) 410 nm; (in CCCCCCCO) 410 nm; (in CCCCCCO) 400 nm; (in CCCCO) 416 nm; (in CCCCOC(C)=O) 404 nm. In addition, the emission maximum (in CCCO) was determined as 395 nm; the emission maximum (in CCOC(C)=O) was 420 nm; the emission maximum (in CCOCC) was 404 nm; the emission maximum (in CO) is 380 nm; the emission maximum (in CS(C)=O) came to 396 nm; the emission maximum (in Cc1ccccc1) was 412 nm. Moreover, the emission maximum is, setting by setting: (in Cc1ccccc1C) 403 nm; (in ClC(Cl)Cl) 415 nm; (in ClCCl) 407 nm; (in N#Cc1ccccc1) 385 nm; (in OCCO) 418 nm; (in c1ccccc1) 414 nm.
As for `COc1ccc(-c2cc(N3CCCCC3)c(C#N)c3c2-c2cccc4cccc-3c24)cc1`, the emission maximum (in O) is given as 552 nm.
As for `CN(C)c1ccc2nc(-c3ccc(C(=O)Nc4ccccc4)cc3)sc2c1`, the emission maximum (in C1CCCCC1) is on record as 427 nm; the emission maximum (in CC#N) was 553 nm; the emission maximum (in CC(C)O) came out at 534 nm; the emission maximum (in CO) is 565 nm; the emission maximum (in CS(C)=O) is 564 nm; the emission maximum (in ClC(Cl)Cl) was 494 nm. Further, the emission maximum (in c1ccccc1) worked out at 475 nm.
In the case of `CN(C)c1[se]c(-c2ccc(Cl)cc2)nc1-c1ccccc1`, the emission maximum (in ClC(Cl)Cl) is recorded as 455 nm.
In turn, `Cc1ccccc1C1=C2C=c3c(oc4ccccc34)=[N+]2[B-](F)(F)n2c1cc1c3ccccc3oc12` had an emission maximum (in C1CCCCC1) of 595.5 nm, an emission maximum (in CCOC(C)=O) of 595 nm and an emission maximum (in CO) of 595 nm.
Regarding `COc1ccc(-c2cc3c(s2)-c2sc(-c4ccc(OC)cc4)cc2P(c2ccccc2)(c2ccccc2)=[O+][B-]3(c2c(C)cc(C)cc2C)c2c(C)cc(C)cc2C)cc1`, under “in C1CCOC1”, the emission maximum was determined as 513 nm.
With `Cc1ccc(N(c2ccc(C)cc2)c2ccc(-c3ccc(C=C(C#N)C#N)s3)cc2)cc1`, the emission maximum (in ClC(Cl)Cl) is on record as 670 nm.
`CCn1c2ccc(-c3cccs3)cc2c2cc(-c3cccs3)ccc21` came in with an emission maximum (in ClCCl) of 392 nm.
The same measure, in the same setting: in the case of `FC(F)(F)c1ccc(C2=Cc3ccccc3[Si]2(c2ccccc2)c2ccccc2)cc1` it was 401 nm; in that of `CCOC(=O)COc1ccc(/C=C/C2=[N+]3C(=Cc4c5ccccc5c(-c5[nH]c(C)cc5C)n4[B-]3(F)F)C(C)=C2)cc1`, 705 nm.
Molecule `C=Cc1cc2ccc(OC(=O)c3ccccc3)cc2oc1=O` registered an emission maximum (in CC#N) of 420 nm.
On to `CCCCCCCCOc1ccc(C2=C3C(C)=C(C#Cc4ccc(B(c5c(C)cc(C)cc5C)c5c(C)cc(C)cc5C)cc4)C(C)=[N+]3[B-](F)(F)n3c(C)c(C#Cc4ccc(B(c5c(C)cc(C)cc5C)c5c(C)cc(C)cc5C)cc4)c(C)c32)cc1`, for which the emission maximum reads like this: (in CC#N) 598 nm; (in CCCCCC) 604 nm; (in ClCCl) 602 nm.
`COc1ccc(-c2nc(-c3ccc(C#N)cc3)[nH]c2-c2ccc(OC)cc2)cc1` came in with an emission maximum (in CO) of 473 nm.

These data come from the Deep4Chem optical property database.
